Reference: US6376500B2, “Substituted 2-(4-piperidyl)-4(3H)-quinazolinones and 2-(4-piperidyl)-4(3H)-azaquinazolinones” (Syntex (U.S.A.) LLC, priority 1999, dated 2002)
Structures can show the parent of a compound that is named as a salt.

Legend:
anesthetized dog = assay: Dog in vivo blood and intraurethral pressure assay; conditions: i.v., anesthetized mongrel dogs
Method: The following describes an in vivo assay for measuring the relative effect of test compounds on hypogastric nerve stimulation-induced increases in intraurethral pressure and phenylephrine-induced increases in diastolic blood pressure in anesthetized dog.
Mongrel dogs (10 to 20 kg) were fasted for 12 to 18 hours and anesthetized with […] (35 mg/kg, i.v.). An endotracheal tube was inserted and thereafter the lungs were mechanically ventilated with room air. The right femoral vein was isolated and cannulated with two polyethylene cannulae, one for the administration of a continuous infusion of phenobarbital sodium (5 to 10 mg/kg/hr) and the other for bolus administration of test substances. The right femoral artery was isolated and cannulated to the abdominal aorta with a fluid filled polyethylene cannula connected to an external pressure transducer for monitoring diastolic aortic pressure (DAP). The bladder was exposed via a ventral midline abdominal incision and emptied of urine through a 22 gauge needle. The bladder was cannulated through a stab incision with a water filled balloon catheter connected to an external pressure transducer for monitoring prostatic intraurethral pressure (IUP). The right hypogastric nerve (HGN) was carefully isolated and attached to a Dastre's electrode for nerve stimulation. […]

Structure (SMILES) | melting point | inhibition of HGN stimulation-induced increases in IUP and phenylephrine-induced increases in DAP (anesthetized dog)
Cl.Cl.O=c1[nH]c(C2CCN(CCc3c[nH]c4cc(F)ccc34)CC2)nc2cc(F)c(F)cc12 | 215 to 217 °C | –
Cl.O=c1[nH]c(C2CCN(CCc3c[nH]c4ccc(F)cc34)CC2)nc2cc(F)ccc12 | 283 °C (dec.) | –
Cl.O=c1[nH]c(C2CCN(CCc3c[nH]c4cc(F)ccc34)CC2)nc2cc(F)ccc12 | 205 to 209 °C | –
COc1ccc2nc(C3CCN(CCc4c[nH]c5cc(F)ccc45)CC3)[nH]c(=O)c2c1.Cl | 230 to 232 °C | –
COc1cc2nc(C3CCN(CCc4c[nH]c5cc(F)ccc45)CC3)[nH]c(=O)c2cc1OC.Cl | 229 to 231 °C | –
COc1cc2nc(N3CCN(C(=O)c4ccco4)CC3)nc(N)c2cc1OC [prazosin] | – | inhibited increases in IUP and DAP in similar fashion
Cl.Cl.O=c1[nH]c(C2CCN(CCc3c[nH]c4cc(F)ccc34)CC2)nc2ccc(F)cc12 | 195 to 197 °C | –

Further lines, with some results ahead:

melting point | Structure (SMILES) | inhibition of HGN stimulation-induced increases in IUP and phenylephrine-induced increases in DAP (anesthetized dog)
300 °C (dec.) | Cl.O=c1[nH]c(C2CCN(CCc3c[nH]c4ccc(F)cc34)CC2)nc2cc(Cl)ccc12 | –
190 to 195 °C | Cl.Cl.O=c1[nH]c(C2CCN(CCc3c[nH]c4ccccc34)CC2)nc2cc(Cl)ccc12 | –
298 to 301 °C | Cl.O=c1[nH]c(C2CCN(CCc3c[nH]c4ccc(F)cc34)CC2)nc2ccccc12 | –
292 to 294 °C | Cl.O=c1[nH]c(C2CCN(CCc3c[nH]c4cc(F)ccc34)CC2)nc2ccc(Cl)cc12 | –
290 °C (dec.) | Cl.O=c1[nH]c(C2CCN(CCc3c[nH]c4ccc(F)cc34)CC2)nc2ccc(Cl)cc12 | –
263 to 264 °C | Cl.O=c1[nH]c(C2CCN(CCc3c[nH]c4cc(F)ccc34)CC2)nc2ccccc12 | –
256 to 266 °C | Cl.O=c1[nH]c(C2CCN(CCc3c[nH]c4cc(F)ccc34)CC2)nc2cc(Cl)ccc12 | –
268 to 270 °C | O=c1[nH]c(C2CCN(CCc3c[nH]c4ccccc34)CC2)nc2ccccc12 (as salt: hydrochloride) | –
220 to 225 °C | Cl.O=c1[nH]c(C2CCN(CCc3c[nH]c4ccccc34)CC2)nc2cc(F)ccc12 | –
